According to ChEMBL document CHEMBL1667817, “Design, synthesis and biological evaluation of new arylpiperazine derivatives bearing a flavone moiety as α1-adrenoceptor antagonists” (Bioorg Med Chem Lett, 2011):

Target: T1, Adrenergic receptor alpha-1 (Rattus norvegicus, UniProt P15823+P23944+P43140)
T1 sequence (P15823 whole entry): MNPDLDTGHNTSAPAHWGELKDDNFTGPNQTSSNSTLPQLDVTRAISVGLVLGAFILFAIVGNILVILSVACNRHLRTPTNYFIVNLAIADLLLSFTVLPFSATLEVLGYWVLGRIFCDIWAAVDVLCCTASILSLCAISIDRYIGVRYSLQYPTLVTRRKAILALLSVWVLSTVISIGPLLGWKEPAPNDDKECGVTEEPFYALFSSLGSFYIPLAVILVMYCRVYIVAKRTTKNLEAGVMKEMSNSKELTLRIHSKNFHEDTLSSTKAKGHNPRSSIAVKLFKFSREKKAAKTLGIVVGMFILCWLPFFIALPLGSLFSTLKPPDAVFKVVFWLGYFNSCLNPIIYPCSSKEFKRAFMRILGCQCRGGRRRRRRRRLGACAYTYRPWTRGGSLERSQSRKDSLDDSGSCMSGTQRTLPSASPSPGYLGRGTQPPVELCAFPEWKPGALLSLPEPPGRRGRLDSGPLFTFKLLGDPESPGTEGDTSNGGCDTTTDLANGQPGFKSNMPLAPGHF
T1 sequence (P23944 whole entry): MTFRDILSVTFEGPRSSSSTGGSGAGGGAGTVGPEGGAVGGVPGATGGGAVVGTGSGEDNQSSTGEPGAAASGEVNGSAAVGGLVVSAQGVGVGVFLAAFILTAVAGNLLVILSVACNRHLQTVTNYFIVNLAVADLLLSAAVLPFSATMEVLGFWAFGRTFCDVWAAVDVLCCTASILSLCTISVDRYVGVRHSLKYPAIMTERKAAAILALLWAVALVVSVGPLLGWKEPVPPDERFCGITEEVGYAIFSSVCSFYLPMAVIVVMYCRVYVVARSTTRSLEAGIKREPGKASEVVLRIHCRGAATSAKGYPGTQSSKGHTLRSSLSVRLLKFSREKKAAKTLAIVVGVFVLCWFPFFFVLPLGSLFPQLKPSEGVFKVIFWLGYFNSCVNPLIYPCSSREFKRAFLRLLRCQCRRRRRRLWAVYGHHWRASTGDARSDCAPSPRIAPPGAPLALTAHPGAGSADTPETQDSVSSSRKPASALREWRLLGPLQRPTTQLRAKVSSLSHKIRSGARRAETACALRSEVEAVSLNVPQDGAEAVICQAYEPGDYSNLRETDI
T1 sequence (P43140 whole entry): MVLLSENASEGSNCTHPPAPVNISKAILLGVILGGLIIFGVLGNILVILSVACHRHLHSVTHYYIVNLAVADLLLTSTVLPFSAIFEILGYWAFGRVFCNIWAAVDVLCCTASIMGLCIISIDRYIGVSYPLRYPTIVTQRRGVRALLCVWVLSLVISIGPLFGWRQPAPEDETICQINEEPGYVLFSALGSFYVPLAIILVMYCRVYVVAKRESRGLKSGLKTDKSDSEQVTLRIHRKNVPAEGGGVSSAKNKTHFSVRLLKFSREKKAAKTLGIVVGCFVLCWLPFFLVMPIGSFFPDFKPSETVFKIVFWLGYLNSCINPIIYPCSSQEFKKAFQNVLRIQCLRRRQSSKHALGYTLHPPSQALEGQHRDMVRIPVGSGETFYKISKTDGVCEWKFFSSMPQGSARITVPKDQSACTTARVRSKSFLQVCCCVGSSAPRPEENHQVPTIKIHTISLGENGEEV
Assay: Antagonist activity at alpha1-adrenoceptor in rat anococcygeal muscle assessed as inhibition of phenylephrine-induced contraction
Format: functional

| pA2 | Structure (SMILES) |
| --- | --- |
| 8.207 | Cc1ccccc1N1CCN(CCOc2ccc3c(=O)cc(-c4ccc(Cl)cc4)oc3c2)CC1 |
| 7.914 | O=c1cc(-c2ccc(Cl)cc2)oc2cc(OCCCCN3CCN(c4ccccc4)CC3)ccc12 |
| 8.072 | O=c1cc(-c2ccc(Cl)cc2)oc2cc(OCCCN3CCN(c4ccccc4)CC3)ccc12 |
| 7.383 | Cc1ccccc1N1CCN(CCOc2ccc3c(=O)cc(-c4ccccc4)oc3c2)CC1 |
| 8.647 | Cc1ccc(N2CCN(CCOc3ccc4c(=O)cc(-c5ccccc5)oc4c3)CC2)cc1 |
| 8.579 | O=c1cc(-c2ccc(Cl)cc2)oc2cc(OCCN3CCN(c4ccccc4)CC3)ccc12 |
| 6.897 | O=c1cc(-c2ccccc2)oc2cc(OCCBr)ccc12 |
| 6.368 | O=c1cc(-c2ccc(Cl)cc2)oc2cc(OCCCCBr)ccc12 |
| 6.609 | O=c1cc(-c2ccccc2)oc2cc(O)ccc12 [7-HYDROXYFLAVONE] |
| 8.177 | O=c1cc(-c2ccccc2)oc2cc(OCCCN3CCN(c4ccccc4)CC3)ccc12 |
| 6.409 | O=c1cc(-c2ccccc2)oc2cc(OCCCBr)ccc12 |
| 6.538 | O=c1cc(-c2ccccc2)oc2cc(OCCCCBr)ccc12 |
| 6.93 | Cc1ccccc1N1CCN(CCCOc2ccc3c(=O)cc(-c4ccccc4)oc3c2)CC1 |
| 7.471 | Cc1ccccc1N1CCN(CCCCOc2ccc3c(=O)cc(-c4ccc(Cl)cc4)oc3c2)CC1 |
| 8.333 | O=c1cc(-c2ccccc2)oc2cc(OCCCCN3CCN(c4ccccc4)CC3)ccc12 |
| 7.71 | Cc1ccccc1N1CCN(CCCCOc2ccc3c(=O)cc(-c4ccccc4)oc3c2)CC1 |
| 7.684 | Cc1ccc(N2CCN(CCCOc3ccc4c(=O)cc(-c5ccccc5)oc4c3)CC2)cc1 |
| 6.925 | O=c1cc(-c2ccc(Cl)cc2)oc2cc(OCCBr)ccc12 |
| 8.526 | O=c1cc(-c2ccccc2)oc2cc(OCCN3CCN(c4ccccc4)CC3)ccc12 |
| 8.498 | Cc1ccc(N2CCN(CCCCOc3ccc4c(=O)cc(-c5ccc(Cl)cc5)oc4c3)CC2)cc1 |
| 8.088 | Cc1ccc(N2CCN(CCCOc3ccc4c(=O)cc(-c5ccc(Cl)cc5)oc4c3)CC2)cc1 |
| 6.168 | O=c1cc(-c2ccc(Cl)cc2)oc2cc(OCCCBr)ccc12 |
| 7.772 | Cc1ccccc1N1CCN(CCCOc2ccc3c(=O)cc(-c4ccc(Cl)cc4)oc3c2)CC1 |
| 8.93 | Cc1ccc(N2CCN(CCOc3ccc4c(=O)cc(-c5ccc(Cl)cc5)oc4c3)CC2)cc1 |
| 6.845 | O=c1cc(-c2ccc(Cl)cc2)oc2cc(O)ccc12 |
| 6.709 | Cc1ccc(N2CCN(CCCCOc3ccc4c(=O)cc(-c5ccccc5)oc4c3)CC2)cc1 |
